In US20130072424A1, “COMPOUNDS AND METHODS FOR PEPTIDE RIBONUCLEIC ACID CONDENSATE PARTICLES FOR RNA THERAPEUTICS” (MARINA BIOTECH, INC., priority 2005, published 2013):
Ends that are not written are not given here.

What was measured:
hTNF-α mRNA = test: Knockdown of hTNF-α gene expression by siRNA/peptide complexes in LPS-stimulated human monocytes (branch DNA mRNA); assay type: cell-based; conditions: knockdown of hTNF-α mRNA vs Qneg; siRNAs A19S21, 21/21, LC20 at 20 nM; molar ratio 1 to 5; human monocytes
Procedure: Specifically, the ability of siRNA/peptide complexes to modulate expression of the human tumor necrosis factor-α (hTNF-α) gene was assessed. The significance of targeting the hTNF-α gene is that it is implicated in mediating the occurrence or progression of rheumatoid arthritis (RA) when over-expressed in human and other mammalian subjects.
Human monocytes were used as a model system to determine the effect of siRNA/peptide complexes on hTNF-α gene expression. Qneg represents a random siRNA sequence and functioned as the negative control. […] A19S21, 21/21 and LC20 are siRNAs that target hTNF-α mRNA.
Healthy human blood was purchased from Golden West Biologicals (CA), the peripheral blood mononuclear cells (PBMC) were purified from the blood using Ficoll-Pague plus (Amersham) gradient. Human monocytes were then purified from the PBMCs fraction using magnetic microbeads from Miltenyi Biotech. Isolated human monocytes were resuspended in IMDM supplemented with 4 mM glutamine, 10% FBS, 1× non-essential amino acid and 1× pen-strep, and stored at 4 C until use.
In a 96 well flat bottom plate, human monocytes were seeded at 100 K/well/100 μl in OptiMEM medium (Invitrogen). Exemplary polynucleotide delivery-enhancing polypeptides were mixed with 20 nM siRNA at a molar ratio of 1 to 5 in OptiMEM medium at room temperature for 5 minutes. At the end of incubation, FBS was added to the mixture (final 3%), and 50 μl of the mixture was added to the cells. The cells were incubated at 37° C. for 3 hours. After incubation, the cells were transferred to V-bottom plate and pelleted at 1500 rpm for 5 min. The cells were resuspended in growth medium (IMDM with glutamine, non-essential amino acid, and pen-strep). After an overnight incubation, the monocytes were stimulated by application of LPS (Sigma) at 1 ng/ml for 3 hours to increase expression of TNF-α expression levels. After induction by LPS, cells were collected as above for mRNA quantification, and supernatant was saved for protein quantification if desired.
For mRNA measurement, branch DNA technology from Genospectra (CA) was used according to manufacturer's specification. To quantitate mRNA level in the cells, both house keeping gene (cypB) and target gene (TNF-α) mRNA were measured, and the reading for TNF-α was normalized with cypB to obtain relative luminescence unit. […]

[1] = tested on: primary mouse tail fibroblast (MTF) cells; test: Peptide cell-uptake assay (FITC-labeled peptide, flow cytometry); assay type: cell-based; conditions: for Peptide FITC MFI: relative values
Procedure: The efficacy of the full-length and truncated forms of polypeptide PN73 to enter cells was tested in vitro by a cell-uptake assay with primary mouse tail fibroblast (MTF) cells. The number of cells in culture that receive the FITC-labeled peptide was measured by flow cytometry. The percentage peptide cell-uptake was expressed relative to the total number of cells present in the culture. In addition, the Mean Fluorescence Intensity (MFI) was used to evaluate the quantity of FITC-labeled peptide found within cells. MFI directly correlates with the amount of FITC-labeled peptide within the cell: higher relative MFI value correlates with a greater amount of intracellular FITC-labeled peptides. Peptides were evaluated at 0.63 μM, 2.5 μM and 10 μM concentrations; PN768 was tested at 2 μM, 10 μM and 50 μM. […]

[2] = tested on: mouse tail fibroblast (MTF) cells; test: siRNA cell-uptake assay and MFI (Cy5-conjugated siRNA, flow cytometry), Examples 14-16; assay type: cell-based
Procedure: As described above, the cell-uptake assay determines the number of cells that receive Cy5-conjugated siRNA when complexed with a peptide. siRNA cell-uptake was assessed by flow cytometry (refer to Example 2 for details). Uptake was expressed as a percentage calculated by dividing the number of cells containing Cy5-conjugated siRNA by the total number of transfected and untransfected cells in culture. Mean Fluorescence Intensity (MFI) was measured by flow cytometry and determined the amount of Cy5-conjugated siRNA found within cells. The MFI value directly correlates with the amount of Cy5-conjugated siRNA within the cell, thus, a higher MFI value indicates a greater number of Cy5-conjugated siRNA within the cells.
The siRNA cell-uptake assay and MFI measurements were performed as described previously in Examples 2 and 3. […]

in vitro = conditions: mouse, mouse tail fibroblast (MTF) cells
Procedure: Fluorescence activated cell sorting (FACS) analysis were performed using Beckman Coulter FC500 cell analyzer (Fullerton, Calif.). The instrument was adjusted according to the fluorescence probes used (FAM or Cy5 for siRNA and FITC and PE for CD14). Propidium iodide (Fluka, St Louis) and AnnexinV (R&D systems, Minneapolis) were used as indicators for cell viability and cytotoxicity. A brief step-by-step protocol is detailed below. • (a) After exposure to the complex of siRNA/peptide, cells were incubated for at least 3 hours. • (b) Wash cells with 200 μl PBS. • (c) Detach cells with 15 μl TE, incubate at 370 C. • (d) Re-suspend cells in five wells with 30 μl FACS solution (PBS with 0.5% BSA, and 0.1% sodium Azide). • (e) Combine all five wells into a tube. • (f) Add PI (Propidium iodide) 5 μl into each tube. • (g) Analyze the cells with fluorescence activated cell sorting (FCAS) according to manufacturer's instructions.
For siRNA uptake analysis, cells were washed with PBS, treated with trypsin (attached cells only), and then analyzed by flow cytometry. […] In order to differentiate the cellular uptake from the membrane insertion of fluorescence labeled siRNA, trypan blue was used to quench the fluorescence on the cell membrane surface.
FITC-tagged peptides were diluted in Opti-MEM® media (Invitrogen) for about 5 minutes at room temperature and then added to cells. Cells were transfected for 3 hours at and washed with PBS, treated with trypsin, and then analyzed by flow cytometry. Cell viability was determined as above. Cellular uptake was distinguished from the membrane insertion using trypan blue to quench any fluorescence on the cell membrane surface.

[3] = PN73 mutant series, peptide 0.63 μM
[4] = PN73 mutant series, peptide 1.25 μM
[5] = PN73 mutant series, peptide 2.5 μM
[6] = PN73 mutant series, peptide 5 μM

Molecule	% Peptide Cell-Uptake ([1]; peptide 10 μM)	Peptide FITC MFI ([1]; peptide 10 μM)	viability at 0.63 µM (in vitro)	viability at 1.25 µM (in vitro)	viability at 2.5 µM (in vitro)	viability at 5 µM (in vitro)	% siRNA Cell-Uptake [2, 3]	siRNA Cy5 MFI [2, 3]	% siRNA Cell-Uptake [2, 4]	siRNA Cy5 MFI [2, 4]	% siRNA Cell-Uptake [2, 5]	siRNA Cy5 MFI [2, 5]	% siRNA Cell-Uptake [2, 6]	siRNA Cy5 MFI [2, 6]	also measured
SYSVYVYKVLKQ-GK[EPSILON-5CFG-amide (SYSVYVYKVLKQG-{K(5CF)-Gly-NH2}) [PN653]	95 (10 μM) %	8 (10 μM)													KD (hTNF-α mRNA): −; % siRNA Cell-Uptake ([2]; peptide 10 μM): 1.7 (10 μM) %; siRNA Cy5 MFI ([2]; peptide 10 μM, relative values): 4 (10 μM)
KGSFKAVTKAQKKDGKKRKRSFKFSYSVYVYKVLKQ-NH2 [PN647]			85%	83%	88%	87%	71%	13	74%	34	83%	39	85%	41	
CC(C)C[C@H](NC(=O)[C@@H](NC(=O)[C@H](CCCCN)NC(=O)[C@H](Cc1ccc(O)cc1)NC(=O)[C@@H](NC(=O)[C@H](Cc1ccc(O)cc1)NC(=O)[C@@H](NC(=O)[C@H](CO)NC(=O)[C@H](Cc1ccc(O)cc1)NC(=O)[C@H](CO)NC(=O)[C@H](Cc1ccccc1)NC(=O)[C@H](CCCCN)NC(=O)[C@H](CCCNC(=N)N)NC(=O)[C@H](CO)NC(=O)[C@H](CCCNC(=N)N)NC(=O)[C@H](CCCCN)NC(=O)[C@H](CCCNC(=N)N)NC(=O)[C@H](CCCCN)NC(=O)[C@H](CCCCN)NC(=O)CNC(=O)[C@H](CC(=O)O)NC(=O)[C@H](CCCCN)NC(=O)[C@H](CCCCN)NC(=O)[C@H](CCC(N)=O)NC(=O)[C@H](C)NC(=O)[C@H](CCCCN)NC(=O)[C@@H](NC(=O)[C@@H](NC(=O)[C@H](C)NC(=O)[C@H](CCCCN)NC(=O)[C@H](CCCCN)NC(=O)[C@H](CO)NC(=O)CNC(=O)[C@@H](N)CCCCN)C(C)C)[C@@H](C)O)C(C)C)C(C)C)C(C)C)C(=O)N[C@@H](CCCCN)C(=O)N[C@@H](CCC(N)=O)C(N)=O [PN646]			81%	85%	87%	92%	67%	4	70%	10	73%	24	88%	24	
CC(C)C[C@H](NC(=O)[C@@H](NC(=O)[C@H](CCCCN)NC(=O)[C@H](Cc1ccc(O)cc1)NC(=O)[C@@H](NC(=O)[C@H](Cc1ccc(O)cc1)NC(=O)[C@@H](NC(=O)[C@H](CO)NC(=O)[C@H](Cc1ccc(O)cc1)NC(=O)[C@H](CO)NC(=O)[C@H](Cc1c[nH]c2ccccc12)NC(=O)[C@H](CCCCN)NC(=O)[C@H](CCCNC(=N)N)NC(=O)[C@H](CO)NC(=O)[C@H](CCCNC(=N)N)NC(=O)[C@H](CCCCN)NC(=O)[C@H](CCCNC(=N)N)NC(=O)[C@H](CCCCN)NC(=O)[C@H](CCCCN)NC(=O)CNC(=O)[C@H](CC(=O)O)NC(=O)[C@H](CCCCN)NC(=O)[C@H](CCCCN)NC(=O)[C@H](CCC(N)=O)NC(=O)[C@H](C)NC(=O)[C@H](CCCCN)NC(=O)[C@@H](NC(=O)[C@@H](NC(=O)[C@H](C)NC(=O)[C@H](CCCCN)NC(=O)[C@H](CCCCN)NC(=O)[C@H](CO)NC(=O)CNC(=O)[C@@H](N)CCCCN)C(C)C)[C@@H](C)O)C(C)C)C(C)C)C(C)C)C(=O)N[C@@H](CCCCN)C(=O)N[C@@H](CCC(N)=O)C(N)=O [PN645]			84%	89%	90%	90%	68%	5	70%	11	78%	21	88%	28	
KVLKQ-GK[EPSILON-5CFG-amide [PN768]															% Peptide Cell-Uptake ([1]; peptide 50 µM): 91 (50 µM) %; Peptide FITC MFI ([1]; peptide 50 μM): 9 (50 μM)
VYVYKVLKQ-GK[EPSILON-5CFG-amide (VYVYKVLKQG-{K(5CF)-Gly-NH2}) [PN652]	86 (10 μM) %	5 (10 μM)													% siRNA Cell-Uptake ([2]; peptide 10 μM): 1.8 (10 μM) %; siRNA Cy5 MFI ([2]; peptide 10 μM, relative values): 5 (10 μM)
YKVLKQ-GK[EPSILON-5CFG-amide [PN651]	90 (10 μM) %	5 (10 μM)													% siRNA Cell-Uptake ([2]; no peptide concentration printed): 0%; siRNA Cy5 MFI ([2]; peptide .65 μM, relative values): 3 (.65 μM)
KGSFKAVTKAQKKFGKKRKRSRKSFSVYVYKVLKQ-NH2 [PN729]			82%	91%	92%	90%	61%	4	69%	10	79%	16	86%	30	
CC(C)C[C@H](NC(=O)[C@@H](NC(=O)[C@H](CCCCN)NC(=O)[C@H](Cc1ccc(O)cc1)NC(=O)[C@@H](NC(=O)[C@H](Cc1ccc(O)cc1)NC(=O)[C@@H](NC(=O)[C@H](Cc1c[nH]c2ccccc12)NC(=O)[C@H](Cc1ccc(O)cc1)NC(=O)[C@H](CO)NC(=O)[C@H](CCC(=O)O)NC(=O)[C@H](CCCCN)NC(=O)[C@H](CCCNC(=N)N)NC(=O)[C@H](CO)NC(=O)[C@H](CCCNC(=N)N)NC(=O)[C@H](CCCCN)NC(=O)[C@H](CCCNC(=N)N)NC(=O)[C@H](CCCCN)NC(=O)[C@H](CCCCN)NC(=O)CNC(=O)[C@H](CC(=O)O)NC(=O)[C@H](CCCCN)NC(=O)[C@H](CCCCN)NC(=O)[C@H](CCC(N)=O)NC(=O)[C@H](C)NC(=O)[C@H](CCCCN)NC(=O)[C@@H](NC(=O)[C@@H](NC(=O)[C@H](C)NC(=O)[C@H](CCCCN)NC(=O)[C@H](CCCCN)NC(=O)[C@H](CO)NC(=O)CNC(=O)[C@@H](N)CCCCN)C(C)C)[C@@H](C)O)C(C)C)C(C)C)C(C)C)C(=O)N[C@@H](CCCCN)C(=O)N[C@@H](CCC(N)=O)C(N)=O [PN644]			88%	90%	86%	87%	67%	4	71%	8	70%	24	83%	37	
